PubChem BioAssay AID1949 (Southern Research Institute, 2009)
In brackets after ≈: the same amount, converted by molar mass. Records with an inconclusive call do not appear. Activity calls are given as the source filed them. The rule behind the calls is not given here.

Each molecule was assayed on M. tuberculosis H37Rv growth inhibition (assay: Mycobacterium tuberculosis H37Rv growth inhibition, cell based, confirmatory dose response (AID 1949);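 note: bacteria grown 7 days with compound before Alamar blue readout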).

Compound | IC50
Cc1cc(Cl)ccc1NC(=O)CCc1ccc(S(=O)(=O)NC(C)C)cc1 | 2.93 µg/mL (≈ 7.42 µM)
O=C(NCCc1c[nH]c2ccccc12)C(Cl)Cl | 2.63 µg/mL (≈ 9.7 µM)
O=C(Nc1ccc(-c2nc3ccccc3c(=O)o2)cc1)C(c1ccccc1)c1ccccc1 | > 50 µg/mL (inactive)
COc1ccc(NC(=S)Nc2cccc(C(F)(F)F)c2)c([N+](=O)[O-])c1 | 23.3 µg/mL (≈ 62.9 µM)
COc1ccc2nc(Nc3nc(C)c(C)c(=O)[nH]3)nc(C)c2c1 | > 50 µg/mL (inactive)
O=C1C(=O)N(Cc2cccc3ccccc23)c2ccc(Cl)cc21 | 21.4 µg/mL (≈ 66.6 µM)
Cc1ccc(C(=O)Nc2ccc([N+](=O)[O-])cc2C)cc1I | < 0.1 µg/mL
Clc1cc(Cl)c2c(c1)NC(c1cccnc1)C1CC=CC21 (centres undefined) | 22.1 µg/mL (≈ 69.6 µM)
CCN(CC)c1ccc(NC(=O)C23CC4CC(CC(C4)C2)C3)cc1 | > 50 µg/mL (inactive)
c1ccc(COc2ccc(OCCCCn3ccnc3)cc2)cc1 | 5.37 µg/mL (≈ 16.7 µM)
COc1cc(CNC23CC4CC(CC(C4)C2)C3)ccc1OCc1ccccc1 | > 50 µg/mL (inactive)
COc1ccccc1-c1coc2cc(OCC(=O)OC3CCCCC3)ccc2c1=O | 0.24 µg/mL (≈ 0.588 µM)
Cc1cc2ncn(Cc3ccc(C(C)C)cc3)c2cc1C | 0.91 µg/mL (≈ 3.27 µM)
O=C(c1ccc(Cl)cc1)c1ccc(CSc2nnc(-c3ccccc3)o2)o1 | < 0.1 µg/mL
CC(=O)c1c(O)n(C)c(=S)n(C)c1=O | > 50 µg/mL (inactive)
Cc1cc(Nc2ccc(Cl)cc2)nc(NCc2ccccc2)n1 | 1.34 µg/mL (≈ 4.13 µM)
O=[N+]([O-])c1cccc(NC(=S)Nc2ccc(Cl)c(Cl)c2)c1 | 0.3 µg/mL (≈ 0.877 µM)
COC(=O)COc1ccc(-c2ccccc2)cc1 | 0.22 µg/mL (≈ 0.908 µM)
COC(=O)COc1ccc2c(=O)c(Oc3cnn(-c4ccccc4)c3)c(C)oc2c1 | 3.89 µg/mL (≈ 9.57 µM)
Cc1nc2c(-c3ccccc3)c[nH]n2c(=O)c1Cc1ccccc1 | > 50 µg/mL (inactive)
CC1(C)C=Cc2c(nc3ccccc3c2NCc2ccccc2)C1 | 1.47 µg/mL (≈ 4.68 µM)

Compound | IC50
O=C(CCNc1cccc(Cl)c1)c1ccc([N+](=O)[O-])cc1 | 2.87 µg/mL (≈ 9.42 µM)
O=C(O)c1ccc(C2Nc3ccc([N+](=O)[O-])cc3C3c4ccccc4CC23)cc1 (centres undefined) | > 50 µg/mL (inactive)
c1ccc(CCN2CCN(c3ncnc4sc5c(c34)CCCC5)CC2)cc1 | 23.9 µg/mL (≈ 63.2 µM)
COC(=O)COc1ccc(NC(=O)c2ccccc2F)cc1 | 0.65 µg/mL (≈ 2.14 µM)
COc1ccc2nc(/C(C#N)=C\c3cccn3-c3ccccc3F)[nH]c2c1 | 4.8 µg/mL (≈ 13.4 µM)
O=C(Nc1nccs1)c1cn(-c2ccccc2)nc1-c1ccco1 | > 50 µg/mL (inactive)
Cc1nc2cc(NCc3cccc([N+](=O)[O-])c3)ccc2n1Cc1ccccc1 | 5.75 µg/mL (≈ 15.4 µM)
C=CCN(CC=C)C(=S)NC(=O)c1ccc(OC)cc1 | > 50 µg/mL (inactive)
C=CCc1cc(C)ccc1OCCCn1ccnc1 | 3.52 µg/mL (≈ 13.7 µM)
Cc1cc(C)cc(C(=O)NC(=S)Nc2cc([N+](=O)[O-])ccc2O)c1 | 0.4 µg/mL (≈ 1.16 µM)
COc1ccc(C2=CC(c3ccccc3Cl)n3nnnc3N2)cc1OC (centres undefined) | 24.1 µg/mL (≈ 65 µM)
COC(=O)COc1ccc(/C=C(/C#N)c2nc3ccccc3[nH]2)cc1 | 0.67 µg/mL (≈ 2.01 µM)
CC(=O)Oc1cc2c(cc1Cl)C1(CC(c3ccccc3Cl)O2)CC(C)(C)NC(=S)N1 (centres undefined) | 2.84 µg/mL (≈ 6.1 µM)
COc1cc(CNCCO)cc(Cl)c1OCc1ccc(Cl)cc1Cl | 5.72 µg/mL (≈ 14.6 µM)
O=C(NCc1cccc(C(F)(F)F)c1)Nc1cccc(Cl)c1 | 5.93 µg/mL (≈ 18 µM)
CCC(=O)Oc1cccc2ccc(/C=C/c3ccc(C(=O)OC)cc3)nc12 | 3.21 µg/mL (≈ 8.88 µM)
O=[N+]([O-])c1ccc(NC(=S)NCc2ccc(F)cc2)cc1 | 4.86 µg/mL (≈ 15.9 µM)
CC(=O)c1ccc(NCCC(=O)c2ccco2)cc1 | 2.8 µg/mL (≈ 10.9 µM)
S=C(NCCc1ccccc1)NCCc1ccc(Cl)cc1 | 9.95 µg/mL (≈ 31.2 µM)
O=C(NC1CCCCC1)N1CCN(Cc2ccc3c(c2)OCO3)CC1 | 0.39 µg/mL (≈ 1.13 µM)
O=C(COc1cccc2ccccc12)c1ccc(F)cc1 | 2.82 µg/mL (≈ 10.1 µM)

Compound | IC50
O=[N+]([O-])c1ccc(O)c(-c2nc(-c3cccs3)c(-c3cccs3)[nH]2)c1 | 97 µg/mL (≈ 263 µM)
COc1cc(CNC(C)c2ccccc2)cc(Br)c1OCc1ccc(F)cc1 (centres undefined) | 4.06 µg/mL (≈ 9.14 µM)
CN(C)c1ccc(Nc2ncnc3ccc(Br)cc23)cc1 | 1.08 µg/mL (≈ 3.15 µM)
Cc1cc(C)cc(OCC(=O)c2ccc(Br)cc2)c1 | 6.8 µg/mL (≈ 21.3 µM)
Cc1ccc(OCC(=O)NC23CC4CC(CC(C4)C2)C3)cc1C | 3.77 µg/mL (≈ 12 µM)
COC(=O)C(CC(=O)c1ccc(Br)cc1)n1ccnc1 (centres undefined) | 0.7 µg/mL (≈ 2.08 µM)
Cc1cc2ncn(CC(O)COc3ccc(C(C)C)cc3)c2cc1C (centres undefined) | 5.42 µg/mL (≈ 16 µM)
Cc1cc(OC(F)F)ccc1NC(=O)Nc1ccc([N+](=O)[O-])cc1 | 22.9 µg/mL (≈ 67.9 µM)
Clc1ccc(-c2nnc(SCc3ccon3)o2)c(Cl)c1 | 0.79 µg/mL (≈ 2.41 µM)
O=C(Nc1ccncc1)c1ccc2nc(-c3ccccc3)c(-c3ccccc3)nc2c1 | 4.64 µg/mL (≈ 11.5 µM)
OCc1cn(-c2ccccc2)nc1-c1ccc2c(c1)OCCO2 | 6.9 µg/mL (≈ 22.4 µM)
Cc1cc(N2CCCC2)c(C)cc1/C=C\[N+](=O)[O-] | > 50 µg/mL (inactive)
O=C(Oc1ccc(Cl)c2cccnc12)c1ccccc1Br | > 50 µg/mL (inactive)
CCc1ccc(Oc2coc3cc(OC(C)C(=O)OC)ccc3c2=O)cc1 (centres undefined) | 3.05 µg/mL (≈ 8.28 µM)
CCOC(=O)COc1ccc(S(=O)(=O)N2CCC(C)CC2)cc1 | 1.35 µg/mL (≈ 3.95 µM)
CC(=O)Oc1ccccc1C(=O)OCc1ccc2ccccc2c1 | 11.7 µg/mL (≈ 36.5 µM)
Cc1ccc(C(=O)NC(=S)N(C)Cc2ccccc2)cc1 | 2.53 µg/mL (≈ 8.48 µM)
COc1ccc(C(C)(C)C)cc1NC(=S)Nc1ccc(Cl)c(Cl)c1 | 1.43 µg/mL (≈ 3.73 µM)
O=C(CCNc1ccc(Cc2ccncc2)cc1)c1ccc([N+](=O)[O-])cc1 | 4.37 µg/mL (≈ 12.1 µM)
Cc1ccn2c(-c3csc(Nc4ccccn4)n3)c(C)nc2c1 | 0.24 µg/mL (≈ 0.747 µM)
S=C(NCCc1c[nH]c2ccccc12)Nc1ccc(Nc2ccccc2)cc1 | 2.81 µg/mL (≈ 7.27 µM)

Compound | IC50
CC1=NN(c2nc3ccccc3s2)C(=O)C1Cc1cccc2ccccc12 (centres undefined) | 0.3 µg/mL (≈ 0.808 µM)
c1ccc(-c2nnc3sc(-c4cc5ccccc5o4)nn23)cc1 | 4.89 µg/mL (≈ 15.4 µM)
CN(C)CCC(=O)c1ccc(Br)cc1 | 0.61 µg/mL (≈ 2.38 µM)
N#Cc1ccc(-c2nc(-c3ccccc3)c(-c3cccs3)[nH]2)cc1 | 5.89 µg/mL (≈ 18 µM)
O=C(NC(=S)N1CCCCCC1)c1ccc([N+](=O)[O-])cc1 | 1.42 µg/mL (≈ 4.62 µM)
COC(=O)COc1ccc2c(-c3cccc([N+](=O)[O-])c3)cc(=O)oc2c1 | 0.34 µg/mL (≈ 0.957 µM)
Cc1ccc(Cn2cnc3cc(C)c(C)cc32)cc1 | 8.24 µg/mL (≈ 32.9 µM)
Clc1ccccc1COc1ccc2ccccc2c1CNCc1cccnc1 | 8.75 µg/mL (≈ 22.5 µM)
Oc1ccccc1CNCCC12CC3CC(CC(C3)C1)C2 | > 50 µg/mL (inactive)
CCCOc1ccc(C(=O)NC(=S)Nc2ccc(C(=O)O)cc2)cc1 | 0.12 µg/mL (≈ 0.335 µM)
Cc1cc(C)c(C(=O)/C=C/c2cccc([N+](=O)[O-])c2)cc1C | 0.36 µg/mL (≈ 1.22 µM)
CCOC(=O)c1ccc(NC(=S)Nc2ccc(F)c(Cl)c2)cc1 | 0.28 µg/mL (≈ 0.794 µM)
c1cc2c3c(cccc3c1)NC1(CCCCCC1)N2 | > 50 µg/mL (inactive)
O=C(COc1cccc(Cl)c1)Nc1ccc(F)c(Cl)c1 | 5.7 µg/mL (≈ 18.1 µM)
Cc1ccc(NC(=O)C23CC4CCC(CC(C4)C2)C3)cc1 | 0.19 µg/mL (≈ 0.67 µM)
Cc1ccc(SCC(=O)Nc2ccc(C)c([N+](=O)[O-])c2)cc1 | 2.18 µg/mL (≈ 6.89 µM)
CC(=O)Oc1cccc2ccc(/C=C/c3ccc(Cl)cc3)nc12 | < 0.1 µg/mL
O=C(Nc1ccc(Cl)cc1)NC1CC2CCC1C2 (centres undefined) | 0.72 µg/mL (≈ 2.72 µM)
O=C(Nc1nc2ccc(F)cc2s1)c1ccc([N+](=O)[O-])o1 | 5.11 µg/mL (≈ 16.6 µM)
Cc1sc2ncn(C(C)C(=O)OC3CCCCC3)c(=O)c2c1C (centres undefined) | 1.11 µg/mL (≈ 3.32 µM)
COC(=O)c1ccc(/C=C/C(=O)c2cccs2)cc1 | 29.1 µg/mL (≈ 107 µM)
